According to ChEMBL document CHEMBL1201862, “PubChem BioAssay data set” (2004):
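Five concentrations, 48 hours, 96-well plates. At the GI50, growth is halved.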 Active and inactive are the calls of the source. Rule as the data show it: active = GI50 up to about 1.1 µM and inactive = higher.

Key:
Test in all cases: DTP human tumour cell line panel, 48 h
MDA-MB-435 = tested on: MDA-MB-435
HOP-62 = tested on: HOP-62
SF-268 = tested on: SF-268
NCI-H226 = tested on: NCI-H226
SW-620 = tested on: SW-620
NCI/ADR-RES = tested on: NCI/ADR-RES
NCI-H23 = tested on: NCI-H23
T47D = tested on: T47D
K562 = tested on: K562
MCF7 = tested on: MCF7
SF-295 = tested on: SF-295
KM12 = tested on: KM12
MOLT-4 = tested on: MOLT-4
HCT-15 = tested on: HCT-15
PC-3 = tested on: PC-3
SNB-19 = tested on: SNB-19
M14 = tested on: M14
A549 = tested on: A549
HT-29 = tested on: HT-29
OVCAR-4 = tested on: OVCAR-4
NCI-H522 = tested on: NCI-H522
786-0 = tested on: 786-0
OVCAR-8 = tested on: OVCAR-8
UO-31 = tested on: UO-31
SK-OV-3 = tested on: SK-OV-3
HOP-92 = tested on: HOP-92
SK-MEL-28 = tested on: SK-MEL-28
SF-539 = tested on: SF-539
COLO 205 = tested on: COLO 205
UACC-257 = tested on: UACC-257
TK-10 = tested on: TK-10
RPMI-8226 = tested on: RPMI-8226
UACC-62 = tested on: UACC-62
ACHN = tested on: ACHN
NCI-H460 = tested on: NCI-H460
U-251 = tested on: U-251
BT-549 = tested on: BT-549
SK-MEL-2 = tested on: SK-MEL-2
A498 = tested on: A498
SNB-75 = tested on: SNB-75
MDA-MB-231 = tested on: MDA-MB-231
Hs-578T = tested on: Hs-578T
EKVX = tested on: EKVX
SN12C = tested on: SN12C
CCRF-CEM = tested on: CCRF-CEM
HCC 2998 = tested on: HCC 2998
DU-145 = tested on: DU-145
SK-MEL-5 = tested on: SK-MEL-5
MDA-N = tested on: MDA-N
LOX IMVI = tested on: LOX IMVI
RXF 393 = tested on: RXF 393
HCT-116 = tested on: HCT-116
OVCAR-3 = tested on: OVCAR-3
Malme-3M = tested on: Malme-3M
CAKI-1 = tested on: CAKI-1
OVCAR-5 = tested on: OVCAR-5

Measured: GI50

COc1ccc([C@H]2[C@H]3COC(=O)[C@H]3C(C#N)=C3Sc4ccccc4N32)cc1
inactive: MDA-MB-435 44.2 µM | HOP-62 39 µM | SF-268 71.6 µM | NCI-H226 33.1 µM | SW-620 48.6 µM | NCI/ADR-RES 15.5 µM | NCI-H23 22.8 µM | T47D 8.89 µM | K562 41.4 µM | MCF7 27.3 µM | SF-295 16.3 µM | KM12 27.2 µM | MOLT-4 13.4 µM | PC-3 17.3 µM | SNB-19 48.3 µM | M14 56.5 µM | A549 30.5 µM | HT-29 12.4 µM | OVCAR-4 33.7 µM | NCI-H522 18.1 µM | 786-0 36.7 µM | OVCAR-8 51.3 µM | UO-31 23.4 µM | SK-OV-3 39.9 µM | HOP-92 85.1 µM | SK-MEL-28 53.5 µM | SF-539 22.3 µM | COLO 205 15.3 µM | UACC-257 40.6 µM | TK-10 40.6 µM | RPMI-8226 20.7 µM | UACC-62 28.8 µM | ACHN 37.6 µM | NCI-H460 25.4 µM | U-251 24.6 µM | BT-549 5.37 µM | SK-MEL-2 19.1 µM | A498 43.7 µM | SNB-75 9.64 µM | MDA-MB-231 28.3 µM | Hs-578T 31.1 µM | EKVX 37.4 µM | SN12C 15.1 µM | CCRF-CEM 11.9 µM | HCC 2998 44.3 µM | DU-145 19.2 µM | SK-MEL-5 21.1 µM | MDA-N 28.8 µM | LOX IMVI 20.2 µM | RXF 393 3.11 µM | HCT-116 21.7 µM | OVCAR-3 16.4 µM | Malme-3M 43 µM | CAKI-1 21.7 µM | OVCAR-5 80.5 µM
25.8 µM: HCT-15
